Measured values: patent US7893048B2, “2-azetidinone derivatives as cholesterol absorption inhibitors for the treatment of hyperlipidaemic conditions” (AstraZeneca AB, priority 2005, dated 2011)

Columns and labels:
[1] = Absorption in a Caco-2 cells model; format: in vitro ADME; details: human
Description: Absorption of the compounds of formula (I) was tested in a Caco-2 cells model (Gastroenterology 1989, 96, 736): […]

[2] = tested on: 14C-cholesterol absorption; assay: In vivo testing of cholesterol absorption inhibitors (A); details: Mus musculus, po; 0.2 μmol/kg by gavage, procedure A, C57BL/6 female mice
Description: In Vivo Testing of Cholesterol Absorption Inhibitors (A)
C57BL/6 female mice were maintained on regular chow diet and housed in individual cages to collect faeces. Mice were fasted for 3 hours and then gavaged with vehicle or compound. Half an hour later the mice were gavaged with radiolabelled cholesterol. Six hours after the ^14C-cholesterol gavage blood samples were taken via the tail and plasma prepared to determine how much cholesterol were absorbed. 24 hours after the gavage of ^14C-cholesterol the mice were bled and plasma were prepared for analysis. Faeces were collected for 24 hours to assess absorption efficiency.

Structure (SMILES) | Papp [1] | inhibition at 0.2 µmol/kg [2]
O=C(COc1ccc([C@@H]2[C@@H](SCC(O)c3ccc4c(c3)CCO4)C(=O)N2c2ccc(F)cc2)cc1)NCC(=O)N[C@H](CC1CCCCC1)C(=O)O (stereo partly drawn) [Example 1, N-({4-[(2R,3R)-3-{[2-(2,3-dihydro-1-benzofuran-5-yl)-2-hydroxyethyl]thio}-1-(4-fluorophenyl)-4-oxoazetidin-2-yl]phenoxy}acetyl)glycyl-3-cyclohexyl-D-alanine] | 0.5 nm/s | 
CC(C)(C)[C@@H](NC(=O)CNC(=O)COc1ccc([C@@H]2[C@@H](SCC(O)c3ccc4c(c3)CCO4)C(=O)N2c2ccc(F)cc2)cc1)C(=O)O (stereo partly drawn) [Example 4, N-({4-[(2R,3R)-3-{[2-(2,3-dihydro-1-benzofuran-5-yl)-2-hydroxyethyl]thio}-1-(4-fluorophenyl)-4-oxoazetidin-2-yl]phenoxy}acetyl)glycyl-3-methyl-D-valine] |  | 53%
NCCCC[C@@H](NC(=O)CNC(=O)COc1ccc([C@@H]2[C@@H](SCC(O)c3ccc4c(c3)CCO4)C(=O)N2c2ccc(F)cc2)cc1)C(=O)O (stereo partly drawn) [Example 3, N-({4-[(2R,3R)-3-{[2-(2,3-dihydro-1-benzofuran-5-yl)-2-hydroxyethyl]thio}-1-(4-fluorophenyl)-4-oxoazetidin-2-yl]phenoxy}acetyl)glycyl-D-lysine] |  | 59%
